Test results taken from patent US8735414B2 (priority 2009, dated 2014).

Tests used:
[1] = tested on: bicistronic HCV replicon (replicon RNA, GenBank Accession No. AJ242654); assay: HCV Replicon Assay; format: cell-based; conditions: Hepatitis C virus, 72 h, read-out: Replicon IC50

Structure (SMILES) | IC50 [1] | melting point
CCc1cc2c(cc1F)c(C(N)=O)c(-c1ccc(S(=O)(=O)NC3(C(F)(F)F)CC3)cn1)n2C1CCCC1 [compound 872, 1-cyclopentyl-6-ethyl-5-fluoro-2-(5-{[1-(trifluoromethyl)cyclopropyl]sulfamoyl}pyridin-2-yl)-1H-indole-3-carboxamide] | < 500 nM | 196 to 197 °C
C[C@H](NS(=O)(=O)c1ccc(-c2c(C#N)c3cc(Cl)ccc3n2C2CCCC2)nc1)C(F)(F)F [compound 365, 6-(5-chloro-3-cyano-1-cyclopentyl-1H-indol-2-yl)-N-[(2S)-1,1,1-trifluoropropan-2-yl]pyridine-3-sulfonamide] | < 500 nM | 207 to 214 °C
CC(C)c1ccc2c(C#N)c(-c3ncc(S(=O)(=O)N[C@@H](C)C(F)(F)F)cn3)n(C3CCC3)c2c1 [compound 455, 2-[3-cyano-1-cyclobutyl-6-(propan-2-yl)-1H-indol-2-yl]-N-[(2S)-1,1,1-trifluoropropan-2-yl]pyrimidine-5-sulfonamide] | < 500 nM | 217 to 222 °C
CC(C)(NS(=O)(=O)c1ccc(-c2c(C#N)c3cc(F)c(OC(F)F)cc3n2C2CCC2)nc1)C(F)(F)F [compound 676, 6-[3-cyano-1-cyclobutyl-6-(difluoromethoxy)-5-fluoro-1H-indol-2-yl]-N-(1,1,1-trifluoro-2-methylpropan-2-yl)pyridine-3-sulfonamide] | < 500 nM | 162 to 165 °C
CCc1cc2c(cc1F)c(C#N)c(-c1ncc(S(=O)(=O)N[C@@H](C)C(F)(F)F)cc1C)n2-c1ccccn1 [compound 870, 6-[3-cyano-6-ethyl-5-fluoro-1-(pyridin-2-yl)-1H-indol-2-yl]-5-methyl-N-[(2S)-1,1,1-trifluoropropan-2-yl]pyridine-3-sulfonamide] | < 500 nM | 195 to 198 °C
Cc1cc2c(cc1F)c(C#N)c(-c1ccc(S(=O)(=O)N[C@@H](C)C(F)(F)F)cn1)n2-c1cccs1 [compound 990, 6-[3-cyano-5-fluoro-6-methyl-1-(thiophen-2-yl)-1H-indol-2-yl]-N-[(2S)-1,1,1-trifluoropropan-2-yl]pyridine-3-sulfonamide] | < 500 nM | 233 to 240 °C
Cc1ccc2c(C#N)c(-c3ncc(S(=O)(=O)N[C@@H](C)C(F)(F)F)cn3)n(C3CCC3)c2c1 [compound 325, 2-(3-cyano-1-cyclobutyl-6-methyl-1H-indol-2-yl)-N-[(2S)-1,1,1-trifluoropropan-2-yl]pyrimidine-5-sulfonamide] | < 500 nM | 242 to 243 °C
Cc1c(F)cc2c(c1F)c(C#N)c(-c1ccc(S(=O)(=O)N[C@@H](C)C(F)(F)F)cn1)n2C1CCCC1 [compound 559, 6-(3-cyano-1-cyclopentyl-4,6-difluoro-5-methyl-1H-indol-2-yl)-N-[(2S)-1,1,1-trifluoropropan-2-yl]pyridine-3-sulfonamide] | < 500 nM | 218 to 224 °C
Cc1cc2c(cc1F)c(C#N)c(-c1ccc(S(=O)(=O)N[C@@H](C)C(F)(F)F)cn1)n2-c1ncccc1C [compound 739, 6-[3-cyano-5-fluoro-6-methyl-1-(3-methylpyridin-2-yl)-1H-indol-2-yl]-N-[(2S)-1,1,1-trifluoropropan-2-yl]pyridine-3-sulfonamide] | < 500 nM | 219 to 221 °C
Cc1cc2c(cc1Cl)c(C#N)c(-c1ccc(S(=O)(=O)N[C@@H](C)C(F)(F)F)cn1)n2C1CCC1 [compound 446, 6-(5-chloro-3-cyano-1-cyclobutyl-6-methyl-1H-indol-2-yl)-N-[(2S)-1,1,1-trifluoropropan-2-yl]pyridine-3-sulfonamide] | < 500 nM | 209 to 210 °C
Cc1ccc2c(C#N)c(-c3ccc(S(=O)(=O)N[C@@H](C)C(F)(F)F)cn3)n(-c3ccccn3)c2c1 [compound 476, 6-[3-cyano-6-methyl-1-(pyridin-2-yl)-1H-indol-2-yl]-N-[(2S)-1,1,1-trifluoropropan-2-yl]pyridine-3-sulfonamide] | < 500 nM | 199 to 203 °C
N#Cc1c(-c2ncc(S(=O)(=O)NC(CF)CF)cn2)n(C2CCC2)c2ccc(CF)cc12 [compound 377, 2-[3-cyano-1-cyclobutyl-5-(fluoromethyl)-1H-indol-2-yl]-N-(1,3-difluoropropan-2-yl)pyrimidine-5-sulfonamide] | < 500 nM | 131 to 134 °C
Cc1ccc2c(c1)c(C#N)c(-c1ncc(S(=O)(=O)NC(CF)CF)cn1)n2C1CCCC1 [compound 160, 2-(3-cyano-1-cyclopentyl-5-methyl-1H-indol-2-yl)-N-(1,3-difluoropropan-2-yl)pyrimidine-5-sulfonamide] | < 500 nM | 202 to 207 °C
N#Cc1c(-c2ccc(S(=O)(=O)NC(CF)CF)cn2)n(C2CCCC2)c2ccc(OC(F)(F)F)cc12 [compound 34, 6-[3-cyano-1-cyclopentyl-5-(trifluoromethoxy)-1H-indol-2-yl]-N-(1,3-difluoropropan-2-yl)pyridine-3-sulfonamide] | < 500 nM | 159 to 160 °C
CCc1cc2c(cc1F)c(C(N)=O)c(-c1ccc(S(=O)(=O)NC(C)(C)C)cn1)n2-c1ccccc1 [compound 1109, 2-[5-(tert-butylsulfamoyl)pyridin-2-yl]-6-ethyl-5-fluoro-1-phenyl-1H-indole-3-carboxamide] | < 500 nM | 237.9 to 238.9 °C
Cc1cccc(-n2c(-c3ccc(S(=O)(=O)N[C@@H](C)C(F)(F)F)cn3)c(C#N)c3cc(F)c(C)cc32)n1 [compound 923, 6-[3-cyano-5-fluoro-6-methyl-1-(6-methylpyridin-2-yl)-1H-indol-2-yl]-N-[(2S)-1,1,1-trifluoropropan-2-yl]pyridine-3-sulfonamide] | < 500 nM | 219 to 225 °C
CC(C)NS(=O)(=O)c1cnc(-c2c(C(N)=O)c3ccc(Cl)cc3n2C2CCC2)nc1 [compound 780, 6-chloro-1-cyclobutyl-2-[5-(propan-2-ylsulfamoyl)pyrimidin-2-yl]-1H-indole-3-carboxamide] | < 500 nM | 251 to 253 °C
Cc1cc2c(cc1F)c(C#N)c(-c1ncc(S(=O)(=O)N[C@@H](C)C(F)(F)F)cc1C)n2-c1ncccn1 [compound 888, 6-[3-cyano-5-fluoro-6-methyl-1-(pyrimidin-2-yl)-1H-indol-2-yl]-5-methyl-N-[(2S)-1,1,1-trifluoropropan-2-yl]pyridine-3-sulfonamide] | < 500 nM | 201 to 204 °C
C[C@@H](NS(=O)(=O)c1ccc(-c2c(C(N)=O)c3cc(F)c(C4CC4)cc3n2C2CCCC2)nc1)C(F)(F)F [compound 829, 1-cyclopentyl-6-cyclopropyl-5-fluoro-2-(5-{[(2R)-1,1,1-trifluoropropan-2-yl]sulfamoyl}pyridin-2-yl)-1H-indole-3-carboxamide] | < 500 nM | 233 to 234 °C
Cc1ccc2c(C#N)c(-c3ncc(S(=O)(=O)N[C@@H](C)C(F)(F)F)cn3)n(C3CCCC3)c2c1 [compound 404, 2-(3-cyano-1-cyclopentyl-6-methyl-1H-indol-2-yl)-N-[(2S)-1,1,1-trifluoropropan-2-yl]pyrimidine-5-sulfonamide] | < 500 nM | 223 to 224 °C
N#Cc1c(-c2ccc(S(=O)(=O)NC(CF)CF)cn2)n(C2CCCCC2)c2ccc(F)cc12 [compound 104, 6-(3-cyano-1-cyclohexyl-5-fluoro-1H-indol-2-yl)-N-(1,3-difluoropropan-2-yl)pyridine-3-sulfonamide] | < 500 nM | 138 to 141 °C
N#Cc1c(-c2ncc(S(=O)(=O)NC(CF)CF)cn2)n(CC2CC2)c2ccc(F)cc12 [compound 302, 2-[3-cyano-1-(cyclopropylmethyl)-5-fluoro-1H-indol-2-yl]-N-(1,3-difluoropropan-2-yl)pyrimidine-5-sulfonamide] | < 500 nM | 216 to 221 °C
C[C@H](NS(=O)(=O)c1cnc(-c2c(C#N)c3ccc(F)cc3n2C2CCCCC2)nc1)C(F)(F)F [compound 411, 2-(3-cyano-1-cyclohexyl-6-fluoro-1H-indol-2-yl)-N-[(2S)-1,1,1-trifluoropropan-2-yl]pyrimidine-5-sulfonamide] | 500 to 2000 nM | 224 to 226 °C
CC(C)n1c(-c2ccc(S(=O)(=O)NC(CF)CF)cn2)c(C#N)c2ccc(OC(F)(F)F)cc21 [compound 69, 6-[3-cyano-1-(propan-2-yl)-6-(trifluoromethoxy)-1H-indol-2-yl]-N-(1,3-difluoropropan-2-yl)pyridine-3-sulfonamide] | < 500 nM | 116 to 117 °C
C[C@H](NS(=O)(=O)c1ccc(-c2c(C#N)c3ccc(C4CC4)cc3n2C2CCCC2)nc1)C(F)(F)F [compound 383, 6-(3-cyano-1-cyclopentyl-6-cyclopropyl-1H-indol-2-yl)-N-[(2S)-1,1,1-trifluoropropan-2-yl]pyridine-3-sulfonamide] | < 500 nM | 178 to 181 °C
Cc1ccc2c(C#N)c(-c3ncc(S(=O)(=O)NC(CF)CF)cn3)n(C3CCCC3)c2c1F [compound 586, 2-(3-cyano-1-cyclopentyl-7-fluoro-6-methyl-1H-indol-2-yl)-N-(1,3-difluoropropan-2-yl)pyrimidine-5-sulfonamide] | < 500 nM | 226 to 232 °C
CCc1cc2c(cc1F)c(C#N)c(-c1cc(C)c(S(=O)(=O)N[C@@H](C)C(F)(F)F)cn1)n2-c1ncccn1 [compound 851, 6-[3-cyano-6-ethyl-5-fluoro-1-(pyrimidin-2-yl)-1H-indol-2-yl]-4-methyl-N-[(2S)-1,1,1-trifluoropropan-2-yl]pyridine-3-sulfonamide] | < 500 nM | 231 to 236 °C
CC[C@H](NS(=O)(=O)c1ccc(-c2c(C#N)c3cc(F)c(C)cc3n2C2CCC2)nc1)C(F)(F)F [compound 826, 6-(3-cyano-1-cyclobutyl-5-fluoro-6-methyl-1H-indol-2-yl)-N-[(2S)-1,1,1-trifluorobutan-2-yl]pyridine-3-sulfonamide] | < 500 nM | 212 to 217 °C
